System: severed left femoral artery
Experiment: Severed femoral artery bleeding model in anesthetized mice, topical VRA by cotton-tipped applicator
Type: in vivo
Experimental: Approximately 4 to 6 week old white mice weighing about 20 grams were anesthetized using 50 microliters of anesthetic (ketamine+xylazine) intraperitoneally. The area near the inguinal region (1.75 cm proximal to the ankle) was shaved and a 0.5 to 1 cm incision was made such that the left femoral artery was severed. The incision was washed with normal saline. Control animals were treated with saline while test animals were treated with a VRA (alvinil) (approx. 500 microliters of a 0.8 mmol solution) administered topically with a cotton-tipped applicator soaked with the VRA solution over the wound. The applicator was then removed after 5 seconds and the wound was evaluated for signs of hemorrhage.
In the control mice, the wound was continuously flushed with saline.
In the treatment group of animals, the wound was treated with arvinil by swab application, then flushed once with saline. […] After 10 minutes, a second incision was made in the femoral artery above the previous cut resulting in severe hemorrhage.

## CCCCC/C=C\C/C=C\C/C=C\C/C=C\CCCC(=O)NCc1ccc(O)c(OC)c1 [arvinil]
During the course of the experiment after topical treatment of the severed femoral artery
  signs of shock: No signs of shock
End of experiment after topical treatment of both cuts
  heart perfusion at euthanasia (KCl heart puncture): fully perfused
Second incision above the previous cut after 10 minutes caused severe hemorrhage, topical application to the second cut
  bleeding from second incision in femoral artery after application: cessation of bleeding
Swab application, approx. 500 microliters of 0.8 mmol solution, applicator removed after 5 seconds, observed following one saline flush
  bleeding from severed femoral artery after treatment: No bleeding was observed
